Data on ten compounds can be found in US11203610B2, “2′3′ cyclic dinucleotides with phosphonate bond activating the sting adaptor protein” (INSTITUTE OF ORGANIC CHEMISTRY AND BIOCHEMISTRY ASCR, V.V.I., priority 2017, dated 2021).

For assay [1], the target named is T1, WT STING (Homo sapiens, UniProt Q86WV6, H232R). Put plainly: Differential Scanning Fluorimetry with WT STING. The class given is binding. Details: truncated human WT STING or AQ STING (amino acid residues 140-343); 8xHis (N, cleaved yes); SUMO (N, cleaved yes); made in house; host or cells: E. coli Rosetta-gami B (DE3). The note with it: thermal shift vs STING apoprotein, 150 μM CDN, 0.1 mg/ml truncated human WT STING, SYPRO Orange; for ΔTm at 150 µM: read-out: DSF ΔTm (° C.) WT STING. The protocol: (§1) WT STING and AQ STING Proteins
(§2) Purified PCR products were cleaved with restriction enzymes BamHI (cat. #R0136S, NEB, Ipswich, USA) and NotI (cat. #R0189S, NEB, Ipswich, USA) and cloned into the pSUMO vector linearized with the identical enzymes.
(§3) The resin was poured into a chromatography column, washed with 50 ml buffer A (50 mmol·l^−1 TrisCl (pH 8.0), 800 mmol·l^−1 NaCl, 3 mmol·l^−1 β-mercaptol; 10% glycerol; 20 mmol·l^−1 imidazole) and 8-His-SUMO tagged STING proteins were eluted with 15 ml buffer A containing 300 mmol·l^−1 imidazole. […] Proteins were concentrated with Amicon® Ultra-15 10 K device (cat. #UFC901008, Merck Millipore, Billerica, USA) and flash frozen in liquid N2.
(§4) Differential Scanning Fluorimetry with WT STING and AQ STING
(§5) 20 μL solutions of the reaction mixtures were pipetted in triplicates into 96 well optical reaction plates and thermal denaturation of samples were performed on real time PCR cycler (LightCycler® 480 Instrument II—Roche, Basel, Switzerland). The first derivative of the thermal denaturation curves was performed to calculate denaturing temperatures of STING—CDN complexes and STING apoproteins. The thermal shift for each CDN was calculated by subtracting the average denaturing temperature of STING apoprotein from the average denaturing temperature of STING CDN complex.
A general note: DSF heats the sample and reads unfolding from a dye or from intrinsic fluorescence.
Target sequence in this assay (Q86WV6 140-343 H232R): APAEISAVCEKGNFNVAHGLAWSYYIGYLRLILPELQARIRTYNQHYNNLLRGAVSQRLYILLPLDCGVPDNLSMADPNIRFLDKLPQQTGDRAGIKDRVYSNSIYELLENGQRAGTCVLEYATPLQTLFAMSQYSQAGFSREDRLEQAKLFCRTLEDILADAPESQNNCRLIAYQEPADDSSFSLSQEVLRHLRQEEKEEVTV

The target in assay [2] is T1, WT STING. Put plainly: Digitonin assay using 293T wtSTING-FL reporter cells. The assay is classed as cell-based. The note with it: 293T wtSTING-FL cells; 30 minutes in Digitonin buffer, then 5 hours; ISRE firefly luciferase reporter; 8-point dose-response curve; read-out: Digitonin assay EC50 (μmol · l^−1) WT STING. An excerpt: ISRE Reporter Plasmid (pGL64.27-4xISRE)
Two complementary oligonucleotides of the sequence […] […] […] […] […] The oligonucleotides were mixed in equal molar amounts, hybridized, and cleaved by restriction endonucleases HindIII (cat. #. R0104S, NEB, Ipswich, USA) and BglII (cat. #R0144S, NEB, Ipswich, USA). Ultimately, they were ligated into plasmid pGL4.27 (cat. #E6651, Promega, Madison, USA) linearized with the same enzymes. As result the sequence with four ISRE sites was placed upstream of the minimum promoter of firefly luciferase reporter gene.
After 5 minutes incubation at room temperature (RT), 250 μL of the mixture was added dropwise to the cells in one well. Cells were incubated 36 hours at 37° C. with 5% CO2, and then detached with 0.05% Trypsin and 0.22 g/L EDTA (both cat. #L0941, Biowest, Riverside, USA).
Transfected cells were seeded onto poly-D-lysine coated six well plates at density 50,000 cells per 1 cm^2 in DMEM medium with high glucose containing 10% heat inactivated FBS, 30 g/mL blasticidin (cat. #ant-bl-05, InvivoGen, San Diego, USA), 0.06 mg/ml Penicillin G and 0.1 mg/ml Streptomycin Sulfate (both cat. #. L0018, Biowest, Riverside, USA). The medium was replenished every 3-4 days until visible colonies of cells resistant to blasticidin were formed.
Blasticidin resistant cells stably expressing WT STING were further transfected with […] plasmid following the same procedure as described above. […] Homogeneous culture of stably double transfected cells was prepared by limiting dilution of cells in 96 well plates and wells with cells were selected that originated from a single cell.
The medium was removed next day and three fold serial dilutions of compounds in Digitonin buffer containing 50 mmol·l^−1 HEPES (cat. #H3375, Sigma Aldrich, Czech Republic) pH 7.0, 100 mmol·l^−1 KCl, 3 mmol·l^−1 MgCl2, 0.1 mmol·l^−1 DTT (cat. #D0632, Sigma Aldrich, Czech Republic), 85 mmol·l^−1 Sucrose (cat. #S7903, Sigma Aldrich, Czech Republic), 0.2% BSA (cat. #A2153, Sigma Aldrich, Czech Republic), 1 mmol·l^−1 ATP (cat. #A1852, Sigma Aldrich, Czech Republic), 0.1 mmol·l^−1 GTP (cat. #G8877, Sigma Aldrich, Czech Republic), and 10 μg/mL Digitonin A (cat. #D141, Sigma Aldrich, Czech Republic) were added to the cells. The buffer was removed after 30 minutes incubation at 37° C. with 5% CO2, the cells were washed once with 100 μl of cultivation medium, and 100 μl of medium was added to each well. The plates with cells were incubated for 5 hours at 37° C. with 5% CO2, 50 μl of the medium was removed and 30 μl of ONE-Glo™ Luciferase Assay System reagent (cat. #E6120, Promega, Madison, USA) was added to each well. Luminescence was read on Synergy H1 (Biotek, Winooski, USA).
For orientation: In a reporter assay the amount or activity of a reporter protein is the signal.
Target sequence in this assay (Q86WV6 whole entry H232R, the tested form may be a part): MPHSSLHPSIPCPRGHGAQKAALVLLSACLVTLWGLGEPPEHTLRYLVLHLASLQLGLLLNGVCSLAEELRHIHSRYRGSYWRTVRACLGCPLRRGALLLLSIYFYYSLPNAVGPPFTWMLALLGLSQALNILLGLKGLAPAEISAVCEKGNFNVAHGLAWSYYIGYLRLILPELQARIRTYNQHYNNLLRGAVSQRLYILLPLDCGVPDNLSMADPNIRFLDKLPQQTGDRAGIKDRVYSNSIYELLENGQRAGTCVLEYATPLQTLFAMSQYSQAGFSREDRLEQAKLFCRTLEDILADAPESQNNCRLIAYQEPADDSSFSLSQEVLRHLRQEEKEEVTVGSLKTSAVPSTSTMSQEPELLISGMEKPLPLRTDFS

The target in assay [3] is T2, AQ STING (G230A-R293Q) (Homo sapiens, UniProt Q86WV6, G230A/H232R/R293Q).
T2 construct: truncated human WT STING or AQ STING (amino acid residues 140-343); 8xHis (N, cleaved yes); SUMO (N, cleaved yes); made in house; host or cells: E. coli Rosetta-gami B (DE3)
T2 sequence (Q86WV6 140-343 G230A/H232R/R293Q): as the sequence (Q86WV6 140-343 H232R) above, with G91A, R154Q counted along it
The experiment in a line: Differential Scanning Fluorimetry with AQ STING. The class given is binding. The note with it: thermal shift vs STING apoprotein, 150 μM CDN, 0.1 mg/ml truncated human AQ STING, SYPRO Orange; for ΔTm at 150 µM: read-out: DSF ΔTm (° C.) AQ STING. The protocol: as §1, §2, §3, §4, §5

The term ΔTm denotes the shift of the melting midpoint relative to a reference. In general, EC50 refers to the midpoint of the concentration-response curve.

Turning to `Nc1nc2c(ncn2[C@@H]2O[C@@H]3OCP(=O)(O)O[C@H]4[C@H](O)[C@H](n5cnc6c(N)ncnc65)O[C@@H]4COP(=O)(O)OC2C3O)c(=O)[nH]1` (stereo partly drawn) [Compound 45, (6R,8R,9S,10S,15R,17R)-17-(2-amino-6-oxo-6,9-dihydro-1H-purin-9-yl)-8-(6-amino-9H-purin-9-yl)-3,9,12,18-tetrahydroxy-2,4,7,11,14,16-hexaoxa-3λ^5,12λ^5-diphosphatricyclo[13.2.1.0^6,10]octadecane-3,12-dione], the figures for the shift in melting temperature (ΔTm) at 150 µM in assay [1] and in assay [3] were 18.7 °C and 25.3 °C, respectively. Moreover, the EC50 in assay [2] worked out at 10 nM.

On to `Nc1nc2c(nnn2[C@@H]2O[C@@H]3OCP(=O)(O)O[C@H]4[C@@H](O)[C@H](n5cnc6c(N)ncnc65)O[C@@H]4COP(=O)(O)O[C@@H]2[C@@H]3O)c(=O)[nH]1` [Compound 57, (1R,6R,8R,9R,10S,15R,17R,18S)-17-{5-amino-7-oxo-3H,6H,7H-[1,2,3]triazolo[4,5-d]pyrimidin-3-yl}-8-(6-amino-9H-purin-9-yl)-3,9,12,18-tetrahydroxy-2,4,7,11,14,16-hexaoxa-3λ^5,12λ^5-diphosphatricyclo[13.2.1.0^6,10]octadecane-3,12-dione], for which the ΔTm at 150 µM came to 14.8 °C in assay [1] and 22.2 °C in assay [3]. In addition, the EC50 in assay [2] was 20 nM.

Regarding `Nc1ncnc2c1ncn2[C@@H]1O[C@@H]2COP(=O)(O)O[C@@H]3[C@H](O)[C@@H](COCP(=O)(O)O[C@H]2[C@H]1O)O[C@H]3n1cnc2c(N)ncnc21` [Compound 31], the thermal shift (ΔTm) at 150 µM in assay [1] was 0.5 °C; in assay [3] it was 5.7 °C. For the same compound, the EC50 in assay [2] came to 12500 nM.

In the case of `Nc1nc2c(nnn2[C@@H]2O[C@@H]3OCP(=O)(O)O[C@H]4[C@H](O)[C@H](n5cnc6c(N)ncnc65)O[C@@H]4COP(=O)(O)O[C@@H]2[C@@H]3O)c(=O)[nH]1` [Compound 62, (1R,6R,8R,9S,10S,15R,17R,18S)-17-{5-amino-7-oxo-3H,6H,7H-[1,2,3]triazolo[4,5-d]pyrimidin-3-yl}-8-(6-amino-9H-purin-9-yl)-3,9,12,18-tetrahydroxy-2,4,7,11,14,16-hexaoxa-3λ^5,12λ^5-diphosphatricyclo[13.2.1.0^6,10]octadecane-3,12-dione], the values for the ΔTm at 150 µM in assay [1] and in assay [3] were 16 °C and 22.9 °C, respectively. The concentration for a half-maximal effect (EC50) in assay [2] is 50 nM.

As to `Nc1nc2c(nnn2[C@@H]2O[C@@H]3OCP(=O)(O)O[C@@H]4[C@@H](OCP(=O)(O)O[C@@H]2[C@@H]3O)O[C@@H](n2cnc3c(N)ncnc32)[C@@H]4O)c(=O)[nH]1` [Compound 61, (1R,6R,8R,9R,10S,15R,17R,18S)-17-{5-amino-7-oxo-3H,6H,7H-[1,2,3]triazolo[4,5-d]pyrimidin-3-yl}-8-(6-amino-9H-purin-9-yl)-3,9,12,18-tetrahydroxy-2,5,7,11,14,16-hexaoxa-3λ^5,12λ^5-diphosphatricyclo[13.2.1.0^6,10]octadecane-3,12-dione], the ΔTm at 150 µM in assay [1] was determined as 10 °C; in assay [3], 17.6 °C. Besides, the 50% effective concentration (EC50) in assay [2] is 27 nM.

Take `NC(=O)c1ncn([C@@H]2O[C@@H]3COP(=O)(O)O[C@@H]4[C@H](O)[C@@H](OCP(=O)(O)O[C@H]3[C@H]2O)O[C@H]4n2cnc3c(=O)[nH]c(N)nc32)c1N` [Compound 58, 5-amino-1-[(1R,6R,8R,9R,10S,15R,17R,18S)-17-(2-amino-6-oxo-6,9-dihydro-1H-purin-9-yl)-3,9,12,18-tetrahydroxy-3,12-dioxo-2,4,7,11,14,16-hexaoxa-3λ^5,12λ^5-diphosphatricyclo[13.2.1.0^6,10]octadecan-8-yl]-1H-imidazole-4-carboxamide]: the thermal shift (ΔTm) at 150 µM worked out at 8.3 °C in assay [1] and 11.9 °C in assay [3]. Further, the concentration giving a half-maximal response (EC50) in assay [2] stood at 120 nM.

On to `Nc1ncnc2c1ncn2[C@@H]1O[C@@H]2OCP(=O)(O)O[C@@H]3[C@H](O)[C@@H](COP(=O)(O)O[C@H]2[C@H]1O)O[C@H]3n1cnc2c(=O)[nH]cnc21` [Compound 37, (1R,6R,8R,9R,10S,15R,17R,18R)-8-(6-amino-9H-purin-9-yl)-3,9,12,18-tetrahydroxy-17-(6-oxo-6,9-dihydro-1H-purin-9-yl)-2,5,7,11,13,16-hexaoxa-3λ^5,12λ^5 diphosphatricyclo[13.2.1.0^6,10]octadecane-3,12-dione], for which the ΔTm at 150 µM in assay [1] worked out at 8.5 °C; in assay [3], 16.5 °C. In assay [2], the concentration for a half-maximal effect (EC50) was determined as 50 nM.

As for `Nc1nc2c(ncn2[C@@H]2O[C@@H]3OCP(=O)(O)O[C@H]4[C@@H](O)[C@H](n5cnc6c(N)ncnc65)O[C@@H]4COP(=O)(O)O[C@@H]2[C@@H]3O)c(=O)[nH]1` [Compound 43, (1R,6R,8R,9R,10S,15R,17R,18S)-17-(2-amino-6-oxo-6,9-dihydro-1H-purin-9-yl)-8-(6-amino-9H-purin-9-yl)-3,9,12,18-tetrahydroxy-2,4,7,11,14,16-hexaoxa-3λ^5,12λ^5-diphosphatricyclo[13.2.1.0^6,10]octadecane-3,12-dione], the ΔTm at 150 µM in assay [1] is 8 °C; in assay [3], 16.6 °C. For the same compound, the EC50 in assay [2] is 5 nM.

On to `Nc1nc2c(nnn2[C@@H]2O[C@@H]3OCP(=O)(O)OC4C(F)[C@H](n5cnc6c(N)ncnc65)O[C@@H]4COP(=O)(O)OC2C3O)c(=O)[nH]1` (stereo partly drawn) [Compound 63, (6R,8R,15R,17R)-17-{5-amino-7-oxo-3H,6H,7H-[1,2,3]triazolo[4,5-d]pyrimidin-3-yl}-8-(6-amino-9H-purin-9-yl)-9-fluoro-3,12,18-trihydroxy-2,4,7,11,14,16-hexaoxa-3λ^5,12λ^5-diphosphatricyclo[13.2.1.0^6,10]octadecane-3,12-dione], for which the results for the ΔTm at 150 µM in assay [1] and in assay [3] were 19.5 °C and 26.4 °C, respectively. The EC50 in assay [2] is 8 nM.

Consider `Nc1nc2c(ncn2[C@@H]2O[C@@H]3COP(=O)(O)O[C@@H]4[C@H](O)[C@@H](COP(=O)(O)O[C@@H]2[C@@H]3O)O[C@H]4n2cnc3c(N)ncnc32)c(=O)[nH]1` [2′2′-cGAMP, reference compound], for which the “DSF ΔTm (° C.) WT STING” value in assay [1] was determined as 11.5 °C. In addition, the concentration for a half-maximal effect (EC50) in assay [2] was 30 nM. The “DSF ΔTm (° C.) AQ STING” value in assay [3] is 19.4 °C.
